From patent US7790160B2, “Method of treating CD30 positive lymphomas” (Medarex, Inc., priority 2004, dated 2010)
“Also recorded” adds a separate entry of the source. Where a SMILES comes first, the peptide text is derived from it. The star is where a group is joined. Cbz = O=C(OCc1ccccc1)*

Columns and labels:
L540 cells [1] = test: Annexin V binding assay (annexinV-FITC staining, FACS); format: cell-based, human; conditions: each agent alone, subtoxic concentrations
Description: FIG. 1: Induction of apoptosis in L540 cells after treatment with 5F11 and MG132 L540 cells were cultured for 16 h with PBS (control), crosslinked 5F11, MG132 or a combination of 5F11 and MG132. The apoptotic cells were labeled by annexinV-FITC staining and the percentage of viable and apoptotic cells is given as estimated in FACS analysis. The results of three independent experiments are shown.
2×10^5 L540 cells were incubated (in triplicate) either with 5F11/GaH, bortezomib, or both, or in plain medium as described above at 37° C. for 12 h. To detect apoptotic cells, the translocation of phosphatidylserine to the outer leaflet of the plasma membrane was determined by flow cytometry (FACS calibur Bengton & Dickinson Flow Cytometer) after staining with annexin V conjugated to fluorescein as recommended (Annexin V-FITC apoptosis detection kit I, BD Bioscience, USA). Triplicateswere used to calculate means and standard deviations.

L428 cells [2] = test: XTT viability assay; format: cell-based, human
Text: (§1) Each measurement was done in triplicate.

L540 cells [3] = test: XTT viability assay; format: cell-based, human
Text: as §1

[4] = test system: subcutaneous L540Cy Hodgkin tumors; test: Xenograft model of human HD; format: in vivo; conditions: SCID mice; for tumor growth compared to the control group receiving PBS: 100 μg 5F11 i.p., 10 ng bortezomib i.v. 6 hours later, 4 injections; for tumor growth in the weeks after treatment: several weeks after the 4 injections
Description: FIG. 3: Effect of 5F11 and bortezomib on the tumor growth of subcutaneous L540Cy Hodgkin tumors in SCID mice. The mice were randomly divided into four groups when the L540 derived tumors reached a volume of about 100 mm3 to receive PBS, 5F11 (100 μg), bortezomib (10 ng) or the combination of 5F11 and bortezomib. The tumor volume of each mouse is given. The arrows indicate the days of treatment.
The xenograft model of human HD has been described previously (17). Subcutaneous solid L540Cy tumors were established by injection of L540Cy cells (1×10^7) resuspended in 200 μL PBS into the right flank of pathogen-free severe combined immunodeficiency (SCID) mice (FOX CHASE SCID; Taconic M&B A/S, Ry, Denmark). Tumor development was measured every 3 days and the tumor volume was determined using the formula (length×width×height/2). Animals with established tumors of about 100 mm^3 were divided randomly into four groups, which received 100 μg 5F11 (in 200 μL PBS intraperitoneally) and 6 hours later 10 ng bortezomib i.v. by tail vein or each agent alone for a total of 4 injections. Control mice received PBS only. The experiment was stopped and the mice killed when the median […] in the control group exceeded 2500 mm^3 (day 50). The treatment and control groups consisted of 4 animals each and results were confirmed by repeating the experiments.

[5] = test system: NF-κB subunit p65 in L540 cells; test: Detection of NF-κB subunit p65 with indirect immunofluorescence; format: cell-based, human; conditions: for expression level and nuclear localisation of NF-κB (p65 staining): L540 cells, crosslinked 5F11 or bortezomib
Description: (§2) Cytospins were provided (1 min at 1000 U/min) to determine the effect of 5F11 and/or bortezomib on apoptosis and NFκB-activation in L428 and L540 cells on the single cell level. 2×10^5 cells were seeded in six-well microtiter plates in 3 ml plain media (control) or with 5F11+GaH (5 μg/25 μg per ml) or bortezomib (10 nM) or both. Incubation time was 30 min for 5F11, 1 h for crosslinking GaH and at least six hours for bortezomib, all at 37° C. The slides were dried overnight at room temperature and fixed using ice-cold acteone (30 sec incubation). The TUNEL assay was performed using the In Situ Cell Death Detection Kit, TMR red (Roche) according to the manufacturers instructions. Finally, cells were mounted with VECTASHIELD Mounting Medium containing DAPI (Vector Laboratories, Burlingame, Calif.) or stained with an rabbit-anti-p65 antibody (Santa Cruz, 10 nM) and a second FITC-labeled mouse-anti-rabbit antibody (10 nM). Cytospin preparations were analyzed by fluorescence microscopy.
In order to exclude non-specific antibody binding, slides of untreated cells were stained either with rabbit-anti-p65-IgG, or FITC-conjugated mouse-anti-rabbit-IgG, or DAPI.

[6] = test system: NF-κB-responsive luciferase reporter gene in L428 cells; test: Transient transfection and luciferase reporter gene assay; format: cell-based, human; conditions: L428 transfected with pNF-κB-luc
Description: L428 cells were transfected with either the reporter constructs pCMV-luc (transfection control) or pNF-κB-luc (bar 2-4) or pNF-κB-luc together with the expression vector IkBM (bar 5-7). The transfection efficacy was about 10% and the total amount of DNA was kept constant. After an over night recovery period transfectants were treated with PBS (basal), 5F11 or bortezomib for 24 hours. The luciferase activity (RLU) of the cells were measured and is given to indicate the relative levels of NF-κB-dependent promoter activity.
5×10^6 L428 cells in 1 ml medium were transiently transfected by means of electroporation with 10 μg NF-κB-luc, IkBaM and CMV-GFP. Cells were seeded into six-well plates with additional 2 ml of plain medium. After 24 h incubation at 37° C., GFP transfected cells were examined for green flourescence as indicator of transfection efficacy, which varied from 5% to 10%. Cells were incubated either with 20 μg/ml 5F11+100 μg/ml GaH for 2 h, or with 10 ng/ml bortezomib or both or plain media for 12 h at 37° C. After harvesting the cells were washed twice in PBS (phosphate buffered saline).
Lysis was performed using 1 ml ice-cold reporter lysis buffer (Promega), and lysates were frozen at −70° C. for 1 hour. Luciferase activity was measured using 30 μl lysate in a 96-well luminometry-plate and analyzed by luminometry. Untreated cells, transfected with the reporter gene were used to obtain baseline NF-κB-activity. All assays were done in triplicate to obtain means and standard deviations.

c-flip in L428 cells = test: SDS-PAGE and Western blotting; format: cell-based, human; conditions: CD30 stimulation with 5F11, co-incubation with bortezomib for 6, 8 and 16 hours
Description: (§3) Whole cell protein extracts were prepared in 1× Laemmli solution (10 μg) were separated using sodium dodecyl sulfate polyacrylamide gel electrophoresis (SDS-PAGE) using 4-15% gels. Proteins were transferred to a nitrocellulose membrane (Hybond-C, Amersham Pharmacia Biotech Inc., Freiburg, Germany) and blocked with Roti-Block (Roth, Karlsruhe, Germany) for 1 h at room temperature. Immunoblots were incubated with the primary antibodies obtained from the Apoptosis Sampler Kits I and II (BD Bioscience, CA) in PBS with 10% fetal calf serum as recommended. The c-flip specific antibody was purchased from Sigma (F-6550). Bound antibodies were detected with horseradish peroxidase-conjugated secondary donkey-anti-mouse or rabbit-IgG mAb (Dianova, Hamburg, Germany) or horseradish peroxidaseconjugated goat-anti-mouse IgG (Dianova) diluted 1/10000. The proteins were visualized using the ECL Western blotting detection reagents (Amersham Pharmacia) according to manufacturers instructions.

c-flip in L540 cells = test: SDS-PAGE and Western blotting; format: cell-based, human; conditions: CD30 stimulation with 5F11, co-incubation with bortezomib for 6, 8 and 16 hours
Description: as §3

[7] = test system: bcl-2, bax, TRADD and FADD; test: SDS-PAGE and Western blotting of candidate proteins related to NF-κB activation; format: cell-based, human; conditions: following 5F11 crosslinking or bortezomib treatment
Description: as §3

Karpas 299 cells = test: XTT viability assay; conditions: Karpas299, 5F11 + GaH pre-incubated 30 minutes, versus absence of 5F11, 48 hours
REH cells [8] = test: XTT viability assay, CD30-negative control line; conditions: REH cells (do not express CD30), bortezomib alone
Description: (§5) An XTT-assay showing viability of the Hodgkin cell lines L540 (A), L428 (B) and the ALCL line Karpas299 (C) and the CD30 negative cell line REH (E) after exposure to increasing amounts of bortezomib in the presence (diamond) or absence (triangle) of 5F11.

L540 cells [9] = test: TUNEL assay with 5F11 binding staining (GaH-FITC); format: cell-based, human
Description: as §2
The cellular reponse to 5F11 in the partial apoptosis-resistent HD-derived cell line L540 on the single cell level was analyzed. To visualize binding of 5F11 and apoptosis simultaneously, L540 cells were incubated with 5F11 and a FITC labeled crosslinking goat-anti human antibody before performing a TUNEL assay. […]

[10] = test system: NF-κB DNA binding in L428 cells; test: Electrophoretic mobility shift assay (EMSA); format: cell-based, human; conditions: L428 nuclear extract, crosslinked antibody
Description: (§4) Electrophoretic mobility shift assays (EMSA) were performed to visualize binding of NF-κB to DNA. Nuclear protein extract (5 μg; 20 mM HEPES, pH 7.9, 400 mM NaCl, 1 mM EDTA, 1 mM EGTA) from cells treated with different antibodies were incubated with ^32P-labeled oligonucleotides with the NF-κB binding sequence (Santa Cruz) for 30 minutes at room temperature. The DNA/protein complexes were separated using electrophoresis on 6% native polyacrylamide gels.

[11] = test system: NF-κB DNA binding in L540 cells; test: Electrophoretic mobility shift assay (EMSA); format: cell-based, human; conditions: L540 nuclear extract, crosslinked antibody
Description: as §4

REH cells [12] = test system: REH cells
Description: as §5

L428 cells [13] = conditions: 5F11 alone, even at higher concentrations (ref. 17); cited from earlier work

Row | Molecule | enhancement of apoptosis compared to the control (annexin-V staining and FACS analysis) (L540 cells [1]) | tumor growth compared to the control group receiving PBS [4] | tumor growth in the weeks after treatment [4] | expression level and nuclear localisation of NF-κB (p65 staining) [5] | expression of c-flip (Western blotting) (c-flip in L428 cells) | expression of c-flip (Western blotting) (c-flip in L540 cells) | bcl-2 and bax expression (Western blotting) [7] | expression levels of TRADD and FADD (Western blotting) [7] | other results
1 | CC(C)C[C@@H](C=O)NC(=O)[C@H](CC(C)C)NC(=O)[C@H](CC(C)C)NC(=O)OCc1ccccc1 [MG132, carbobenzoxyl-leucinyl-leucynil-leucynal, reference compound] (Cbz-Leu-Leu-Leu-aldehyde) | did not enhance apoptosis | – | – | – | – | – | – | – | –
2 | CC(C)C[C@H](NC(=O)[C@H](Cc1ccccc1)NC(=O)c1cnccn1)B(O)O [bortezomib, reference compound] | – | significantly delayed tumor growth | tumor progression | exclusion of NF-κB from the cell nuclei | downregulation | downregulation | Only minor changes | remained unaltered | IC50 of bortezomib in the presence of 5F11 (L428 cells [2]; L428, 5F11 + GaH pre-incubated 30 minutes, versus absence of 5F11, 48 hours): decreased; IC50 of bortezomib in the presence of 5F11 (L540 cells [3]; L540, 5F11 + GaH pre-incubated 30 minutes, versus absence of 5F11, 48 hours): decreased; cell viability (XTT) (L540 cells [3]; L540, bortezomib 25 ng/ml, with or without pre-treatment with subtoxic 5F11 + GaH, 48 h): minimal reduction of viability; 5F11-induced NF-κB staining increase and nuclear accumulation in the presence of bortezomib ([5]; L540, bortezomib given 30 minutes after 5F11 stimulation, observed after 6 and 8 hours): inhibited; 5F11-induced activation of the NF-κB reporter gene in the presence of bortezomib [6]: supressed; basal activity of the NF-κB reporter [6]: reduced; IC50 of bortezomib in the presence of 5F11 (Karpas 299 cells): decreased; cytotoxicity (XTT) (REH cells [8]): killed by bortezomib in a dose dependent manner
3 | 5F11: fully human monoclonal antibody directed against CD30; VH SEQ ID NO: 10, VL SEQ ID NO: 12 (antibody, listed as Homo sapiens, V domains shown) VH: QVQLQQWGAGLLKPSETLSLTCAVYGGSFSAYYWSWIRQPPGKGLEWIGDINHGGGTNYNPSLKSRVTISVDTSKNQFSLKLNSVTAADTAVYYCASLTAYWGQGSLVTVSS VL: DIQMTQSPTSLSASVGDRVTITCRASQGISSWLTWYQQKPEKAPKSLIYAASSLQSGVPSRFSGSGSGTDFTLTISSLQPEDFATYYCQQYDSYPITFGQGTRLEIK | did not enhance apoptosis | significantly delayed tumor growth | tumor progression | increased; also recorded: nuclear accumulation | induced strongly | induced strongly | Only minor changes | remained unaltered | binding of 5F11 (staining with GaH-FITC) (L540 cells [9]; L540 cells incubated with 5F11 and FITC labeled crosslinking goat-anti human antibody): All L540 cells were stained; apoptosis on the single cell level (TUNEL assay) (L540 cells [9]; L540 cells, 5F11 crosslinked with GaH, subtoxic concentrations in the combination): only a subset of the cells were rendered apoptotic; enhancement of the cytotoxic activity of bortezomib, reversed sequence (L428 cells [2]; L428 first incubated with bortezomib for 30 minutes, then with the antibody): does not increase; also recorded: did not enhance; activation of the NF-κB reporter gene (luciferase activity) ([6]; stimulation with 5F11): about two-fold; DNA-binding activity of NF-κB (EMSA) [10]: enhanced DNA binding; DNA-binding activity of NF-κB (EMSA) [11]: enhanced DNA binding; effect of pre-incubation with 5F11 on the cytotoxic potential of bortezomib (REH cells [12]): no effect; sensitivity of L428 cells to 5F11 (L428 cells [13]): resistant
